Laboratory results from ChEMBL document CHEMBL1201862, “PubChem BioAssay data set” (2004).
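How tested: cells in 96-well plates exposed to compound for 48 hours at five concentrations. GI50 is the concentration that inhibits growth by half.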 Activity calls are given as the source filed them. No stated cut-off is given here; in the data, active = GI50 up to about 1.1 µM and inactive = higher.

Columns and labels:
Experiment in all cases: NCI-60 cell line screen, 48 h
A498 = tested on: A498
A549 = tested on: A549
BT-549 = tested on: BT-549
COLO 205 = tested on: COLO 205
DU-145 = tested on: DU-145
HCT-116 = tested on: HCT-116
HL-60 = tested on: HL-60
KM12 = tested on: KM12
MDA-MB-435 = tested on: MDA-MB-435
NCI-H226 = tested on: NCI-H226
NCI-H23 = tested on: NCI-H23
OVCAR-3 = tested on: OVCAR-3
OVCAR-4 = tested on: OVCAR-4
OVCAR-5 = tested on: OVCAR-5
OVCAR-8 = tested on: OVCAR-8
RPMI-8226 = tested on: RPMI-8226
SF-295 = tested on: SF-295
SK-MEL-28 = tested on: SK-MEL-28
UACC-62 = tested on: UACC-62
SNB-75 = tested on: SNB-75

Measured: GI50

OCCCc1cc(O)c2c(c1)C(CO)C(c1ccc(O)c(O)c1)O2 (centres undefined)
inactive: A498 > 100 µM | A549 > 100 µM | BT-549 > 100 µM | COLO 205 > 100 µM | DU-145 > 100 µM | HCT-116 > 100 µM | HL-60 > 100 µM | KM12 > 100 µM | MDA-MB-435 > 100 µM | NCI-H226 > 100 µM | NCI-H23 > 100 µM | OVCAR-3 > 100 µM | OVCAR-4 > 10 µM | OVCAR-5 > 100 µM | OVCAR-8 > 100 µM | RPMI-8226 > 10 µM | SF-295 > 100 µM | SK-MEL-28 > 100 µM | UACC-62 > 100 µM

C1CNOCCCONCCCNOCCCONC1
inactive: A498 42.5 µM | A549 91.8 µM | BT-549 69.5 µM | COLO 205 > 100 µM | DU-145 58.9 µM | HCT-116 > 100 µM | HL-60 51.8 µM | KM12 > 100 µM | MDA-MB-435 > 100 µM | NCI-H226 > 100 µM | NCI-H23 > 100 µM | OVCAR-3 62.2 µM | OVCAR-4 70.3 µM | OVCAR-5 > 100 µM | OVCAR-8 60.7 µM | SF-295 93.1 µM | SK-MEL-28 > 100 µM | SNB-75 > 100 µM | UACC-62 > 100 µM

CN(C)c1ccc(/C=C2\N=C(NNc3ccccc3)NC2=O)cc1
inactive: A498 17.1 µM | A549 20.4 µM | BT-549 30 µM | COLO 205 15.6 µM | DU-145 28.4 µM | HCT-116 22.9 µM | KM12 13.2 µM | MDA-MB-435 21.5 µM | NCI-H23 20 µM | OVCAR-3 16 µM | OVCAR-4 24.2 µM | OVCAR-5 31.8 µM | OVCAR-8 30.9 µM | RPMI-8226 16 µM | SF-295 21.5 µM | SK-MEL-28 29.1 µM | SNB-75 25.5 µM | UACC-62 28.8 µM

COc1ccccc1N1C(=O)/C(=C\c2cccc(Oc3ccccc3)c2)S(=O)(=O)C1c1ccccc1 (centres undefined)
inactive: A498 49.8 µM | A549 > 100 µM | BT-549 26.6 µM | COLO 205 23.1 µM | DU-145 55.6 µM | HCT-116 23.8 µM | KM12 28.2 µM | MDA-MB-435 30.8 µM | NCI-H226 > 100 µM | NCI-H23 19 µM | OVCAR-3 38.7 µM | OVCAR-4 9.79 µM | OVCAR-5 89.9 µM | SF-295 81.8 µM | SK-MEL-28 71.1 µM | UACC-62 17.8 µM

NC(CSc1nc2ccccn2c1[N+](=O)[O-])C(=O)O (centres undefined)
inactive: A498 > 100 µM | A549 > 100 µM | BT-549 > 100 µM | COLO 205 > 100 µM | DU-145 > 100 µM | HCT-116 > 100 µM | KM12 > 100 µM | MDA-MB-435 > 100 µM | NCI-H226 > 100 µM | NCI-H23 > 100 µM | OVCAR-3 > 100 µM | OVCAR-4 > 100 µM | OVCAR-5 > 100 µM | OVCAR-8 > 100 µM | RPMI-8226 > 100 µM | SF-295 > 100 µM | SK-MEL-28 > 100 µM | SNB-75 > 100 µM | UACC-62 > 100 µM

COc1cc(CC2c3cc(OC)c(OC)cc3CCN2C)c(Oc2cc3c(cc2OC)-c2c(O)c(OC)cc4c2C(C3)N(C)CC4)cc1OC (centres undefined)
inactive: A498 22 µM | A549 33.2 µM | BT-549 14.8 µM | COLO 205 11.4 µM | DU-145 24.1 µM | HCT-116 18.1 µM | HL-60 4.01 µM | KM12 15 µM | MDA-MB-435 24 µM | NCI-H226 26.7 µM | NCI-H23 22.2 µM | OVCAR-3 20.4 µM | OVCAR-4 28.3 µM | OVCAR-5 45.8 µM | OVCAR-8 20.8 µM | SF-295 17.9 µM | SK-MEL-28 20.3 µM | SNB-75 14.9 µM | UACC-62 20.5 µM

Cc1nn2c(=O)c([N+](=O)[O-])c(/C=C/c3ccco3)nc2s1
inactive: A549 53.5 µM | BT-549 28.7 µM | COLO 205 61.4 µM | DU-145 40.5 µM | HCT-116 36.3 µM | HL-60 30.8 µM | KM12 39.2 µM | MDA-MB-435 21.1 µM | NCI-H226 77.3 µM | NCI-H23 50.5 µM | OVCAR-3 38.8 µM | OVCAR-4 > 100 µM | OVCAR-5 73.1 µM | OVCAR-8 32.7 µM | RPMI-8226 36.7 µM | SF-295 91 µM | SK-MEL-28 48.6 µM | SNB-75 31.5 µM | UACC-62 65.3 µM

O=c1[nH]c(=S)c2cc3c(=S)[nH]c(=O)n(CCC(c4ccccc4)(c4ccccc4)c4ccccc4)c3nc2n1CCC(c1ccccc1)(c1ccccc1)c1ccccc1
inactive: A498 > 100 µM | A549 > 100 µM | BT-549 > 100 µM | COLO 205 > 100 µM | DU-145 > 100 µM | HCT-116 > 100 µM | KM12 > 100 µM | MDA-MB-435 > 100 µM | NCI-H226 > 100 µM | NCI-H23 > 100 µM | OVCAR-3 > 100 µM | OVCAR-4 > 100 µM | OVCAR-5 > 100 µM | RPMI-8226 > 100 µM | SF-295 > 100 µM | SK-MEL-28 > 100 µM | SNB-75 > 100 µM | UACC-62 > 100 µM

ClCc1nc2cc(Cl)ccc2o1
inactive: A549 17 µM | BT-549 14.3 µM | COLO 205 2.65 µM | DU-145 6.21 µM | HCT-116 6.97 µM | HL-60 2.49 µM | KM12 12.3 µM | MDA-MB-435 2.6 µM | NCI-H226 15.9 µM | NCI-H23 8.99 µM | OVCAR-3 1.85 µM | OVCAR-4 1.71 µM | OVCAR-5 18.7 µM | OVCAR-8 4.91 µM | RPMI-8226 1.42 µM | SF-295 20.3 µM | SK-MEL-28 4.44 µM | SNB-75 10.9 µM | UACC-62 8.15 µM

O=C1CCCC2(c3ccccc3)Nc3ccccc3N12 (centres undefined)
inactive: A549 > 100 µM | BT-549 > 100 µM | COLO 205 > 100 µM | DU-145 > 100 µM | HCT-116 > 100 µM | HL-60 55.6 µM | KM12 > 100 µM | MDA-MB-435 > 100 µM | NCI-H226 > 100 µM | NCI-H23 > 100 µM | OVCAR-3 > 100 µM | OVCAR-4 > 100 µM | OVCAR-5 > 100 µM | OVCAR-8 > 100 µM | RPMI-8226 > 100 µM | SF-295 97.1 µM | SK-MEL-28 > 100 µM | SNB-75 > 100 µM | UACC-62 98.6 µM

Cc1c(O)c(OC2OC(CO)C(O)C(O)C2O)cc2c1C=C[C@@H]1[C@@]2(C)C(=O)C[C@]2(C)[C@@H]([C@@](C)(O)C(=O)CCC(C)(C)O)[C@H](O)C[C@@]12C (some centres undefined)
inactive: A498 19.5 µM | A549 26.7 µM | BT-549 26.9 µM | COLO 205 35.5 µM | DU-145 23.7 µM | HCT-116 18.9 µM | HL-60 41.5 µM | KM12 25.4 µM | MDA-MB-435 27.1 µM | NCI-H226 23.3 µM | NCI-H23 17.1 µM | OVCAR-3 22.6 µM | OVCAR-4 25.4 µM | OVCAR-5 25.6 µM | OVCAR-8 33.3 µM | SF-295 17.1 µM | SK-MEL-28 21.1 µM | SNB-75 25.1 µM | UACC-62 18.1 µM

N[C@H](C(=O)O)[C@@H]1CC(Br)=NO1
inactive: A498 > 100 µM | A549 87.5 µM | BT-549 88.9 µM | COLO 205 71.3 µM | DU-145 > 100 µM | HCT-116 52.4 µM | HL-60 > 100 µM | KM12 75.2 µM | MDA-MB-435 95.3 µM | NCI-H226 > 100 µM | NCI-H23 > 100 µM | OVCAR-3 > 100 µM | OVCAR-4 > 100 µM | OVCAR-5 61.4 µM | OVCAR-8 85.5 µM | SF-295 73.6 µM | SNB-75 62.4 µM | UACC-62 85.5 µM

S=C(N/N=C\C(=N/NC(=S)N1CCCCC1)c1ccccc1)N1CCCCC1
inactive: A498 1.78 µM | A549 2.28 µM | BT-549 1.88 µM | COLO 205 2.03 µM | DU-145 1.57 µM | HCT-116 2.3 µM | KM12 2.03 µM | MDA-MB-435 1.91 µM | NCI-H226 1.84 µM | NCI-H23 2.42 µM | OVCAR-3 1.74 µM | OVCAR-4 1.76 µM | OVCAR-5 1.88 µM | RPMI-8226 46.1 µM | SF-295 2.01 µM | SK-MEL-28 1.9 µM | SNB-75 2.1 µM | UACC-62 1.99 µM

O=C1CCN(CCC(F)(F)C(F)(F)C(F)(F)C(F)(F)C(F)(F)C(F)(F)F)C(=S)N1CCC(F)(F)C(F)(F)C(F)(F)C(F)(F)C(F)(F)C(F)(F)F
inactive: A498 > 100 µM | A549 > 100 µM | BT-549 > 100 µM | COLO 205 > 100 µM | DU-145 > 100 µM | HCT-116 > 100 µM | HL-60 > 100 µM | KM12 > 100 µM | MDA-MB-435 > 100 µM | NCI-H226 > 100 µM | NCI-H23 > 100 µM | OVCAR-3 > 100 µM | OVCAR-4 > 100 µM | OVCAR-5 > 100 µM | OVCAR-8 > 100 µM | SF-295 > 100 µM | SK-MEL-28 > 100 µM | SNB-75 > 100 µM | UACC-62 > 100 µM
